Assay results: patent publication US20260028365A1 (BIOGEN MA INC., priority 2022, published 2026)
Read-outs that look alike come from different tables or passages of the source.

How the values were obtained:
JH2 domain of human Tyk2 = JH2 domain of human Tyk2 (Homo sapiens (Human), UniProt P29597); assay: JH2 Biochemical Assay (TR-FRET probe displacement); format: binding
Tyk2 = Tyk2 (Homo sapiens (Human), UniProt P29597); assay: pSTAT4 Cell Assay (MSD, NK92 cells); format: cell-based
[1] = JH2 domain of human Tyk2, TR-FRET probe displacement
[2] = TR-FRET probe displacement, JH2 domain
[3] = TR-FRET probe displacement, JH2 domain of human Tyk2

Sequence of Tyk2 (P29597 whole entry, the tested form may be a part): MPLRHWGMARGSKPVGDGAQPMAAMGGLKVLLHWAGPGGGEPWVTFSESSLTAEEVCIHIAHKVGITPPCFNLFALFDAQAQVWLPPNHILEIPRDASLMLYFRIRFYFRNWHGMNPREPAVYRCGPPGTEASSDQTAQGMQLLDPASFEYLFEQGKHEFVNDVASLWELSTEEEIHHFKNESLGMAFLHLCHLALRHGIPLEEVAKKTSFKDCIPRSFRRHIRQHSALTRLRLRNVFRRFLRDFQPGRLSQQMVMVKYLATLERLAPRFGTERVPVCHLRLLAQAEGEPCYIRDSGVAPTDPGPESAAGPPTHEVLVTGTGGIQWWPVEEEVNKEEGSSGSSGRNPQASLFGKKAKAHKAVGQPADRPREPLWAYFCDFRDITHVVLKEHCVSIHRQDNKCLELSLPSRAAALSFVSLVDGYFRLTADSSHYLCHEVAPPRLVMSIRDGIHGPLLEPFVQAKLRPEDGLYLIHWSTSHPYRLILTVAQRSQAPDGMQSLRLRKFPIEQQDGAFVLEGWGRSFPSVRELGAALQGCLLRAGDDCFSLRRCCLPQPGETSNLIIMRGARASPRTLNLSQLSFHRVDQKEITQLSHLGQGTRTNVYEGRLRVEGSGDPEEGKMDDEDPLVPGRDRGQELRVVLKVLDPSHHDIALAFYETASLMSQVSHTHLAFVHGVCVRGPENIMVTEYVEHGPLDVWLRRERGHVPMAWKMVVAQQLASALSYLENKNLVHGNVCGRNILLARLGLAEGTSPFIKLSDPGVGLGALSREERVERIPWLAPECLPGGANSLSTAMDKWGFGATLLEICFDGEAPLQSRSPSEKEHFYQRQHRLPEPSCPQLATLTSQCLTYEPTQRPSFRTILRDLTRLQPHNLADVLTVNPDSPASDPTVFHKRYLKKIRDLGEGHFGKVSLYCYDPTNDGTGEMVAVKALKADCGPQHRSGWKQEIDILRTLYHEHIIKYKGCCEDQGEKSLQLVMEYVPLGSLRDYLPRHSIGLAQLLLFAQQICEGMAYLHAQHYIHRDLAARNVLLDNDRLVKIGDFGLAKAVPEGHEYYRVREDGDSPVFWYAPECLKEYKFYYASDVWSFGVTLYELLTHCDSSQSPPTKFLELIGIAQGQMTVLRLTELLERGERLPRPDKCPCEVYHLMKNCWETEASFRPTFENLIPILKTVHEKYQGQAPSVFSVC
Sequence of JH2 domain of human Tyk2 (P29597 575-876): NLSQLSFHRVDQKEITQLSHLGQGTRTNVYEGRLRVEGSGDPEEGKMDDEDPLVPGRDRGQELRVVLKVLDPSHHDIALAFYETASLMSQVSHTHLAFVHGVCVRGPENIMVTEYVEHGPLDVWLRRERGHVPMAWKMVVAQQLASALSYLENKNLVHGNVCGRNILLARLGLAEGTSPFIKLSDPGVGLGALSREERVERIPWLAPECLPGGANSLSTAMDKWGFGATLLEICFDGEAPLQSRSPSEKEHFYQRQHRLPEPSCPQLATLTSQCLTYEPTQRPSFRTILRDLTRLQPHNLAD

SMILES	IC50 (JH2 domain of human Tyk2; [1])	IC50 (Tyk2; MSD)	IC50 (JH2 domain of human Tyk2; [2])	IC50 (Tyk2)	IC50 (JH2 domain of human Tyk2; [3])
COc1cnc(NC(C)=O)cc1Nc1ccnc(C2CCOC2)n1 (centres unmarked) [Example 450, N-(5-methoxy-4-((2-(tetrahydrofuran-3-yl)pyrimidin-4-yl)amino)pyridin-2-yl)acetamide]	0.01 to 0.1 µM	≥ 1 µM			
CCc1cc(Nc2cc(NC(C)=O)ncc2-c2ccc3c(n2)OCC(C)(C)O3)nc(C(C)(F)F)n1 [Example 821, N-(4-((2-(1,1-difluoroethyl)-6-ethylpyrimidin-4-yl)amino)-5-(2,2-dimethyl-2,3-dihydro-[1,4]dioxino[2,3-b]pyridin-6-yl)pyridin-2-yl)acetamide]			≤ 0.01 µM	≤ 0.01 µM	
CC(=O)Nc1cc(Nc2cccc(C(C)(F)F)n2)c(-c2ccn(C)n2)cn1 [Example 147, N-(4-((6-(1,1-difluoroethyl)pyridin-2-yl)amino)-5-(1-methyl-1H-pyrazol-3-yl)pyridin-2-yl)acetamide]		≤ 0.01 µM			≤ 0.01 µM
COCc1csc(-c2cnc(NC(C)=O)cc2Nc2cc(C)nc(C(C)(F)F)n2)n1 [Example 233, N-(4-((2-(1,1-difluoroethyl)-6-methylpyrimidin-4-yl)amino)-5-(4-(methoxymethyl)thiazol-2-yl)pyridin-2-yl)acetamide]		≤ 0.01 µM			≤ 0.01 µM
COCCOc1ccnc(-c2cnc(NC(C)=O)cc2Nc2cc(C)nc(C(C)(F)F)n2)n1 [Example 777, N-(4-((2-(1,1-difluoroethyl)-6-methylpyrimidin-4-yl)amino)-5-(4-(2-methoxyethoxy)pyrimidin-2-yl)pyridin-2-yl)acetamide]			0.01 to 0.1 µM	≥ 1 µM	
CC(=O)Nc1cc(Nc2cc(C)nc(C(C)(C)F)n2)c(-c2cn3c(n2)COCC3)cn1 [Example 531, N-(5-(5,6-dihydrO8H-imidazo[2,1-c][1,4]oxazin-2-yl)-4-((2-(2-fluoropropan-2-yl)-6-methylpyrimidin-4-yl)amino)pyridin-2-yl)acetamide]	≤ 0.01 µM	≤ 0.01 µM			
CC(=O)Nc1cc(Nc2ccnc(C(C)(F)F)n2)c(-c2nc3c(s2)CCN(C)C3)cn1 [Example 797, N-(4-((2-(1,1-difluoroethyl)pyrimidin-4-yl)amino)-5-(5-methyl-4,5,6,7-tetrahydrothiazolo[4,5-c]pyridin-2-yl)pyridin-2-yl)acetamide]			≤ 0.01 µM	≤ 0.01 µM	
CC(=O)Nc1cc(Nc2ccnc(C(C)(F)F)n2)c(-c2cncc(OC3COC3)n2)cn1 [Example 690, N-(4-((2-(1,1-difluoroethyl)pyrimidin-4-yl)amino)-5-(6-(oxetan-3-yloxy)pyrazin-2-yl)pyridin-2-yl)acetamide]	0.01 to 0.1 µM	0.01 to 0.1 µM			
COc1cncc(-c2cc(Nc3cc(NC(C)=O)ncc3OC)nc(C(C)(F)F)n2)c1 [Example 296, N-(4-((2-(1,1-difluoroethyl)-6-(5-methoxypyridin-3-yl)pyrimidin-4-yl)amino)-5-methoxypyridin-2-yl)acetamide]		0.1 to 1 µM			0.01 to 0.1 µM
CC(=O)Nc1cc(Nc2cc(C)cc(C(C)(F)F)n2)c(-c2ncc(F)cn2)cn1 [Example 190, N-(4-((6-(1,1-difluoroethyl)-4-methylpyridin-2-yl)amino)-5-(5-fluoropyrimidin-2-yl)pyridin-2-yl)acetamide]		0.01 to 0.1 µM			≤ 0.01 µM
COc1cnc(NC(C)=O)cc1Nc1cc(-c2cc(F)c3nc(C)cn3c2)nc(C(C)(F)F)n1 [Example 398, N-(4-((2-(1,1-difluoroethyl)-6-(8-fluoro-2-methylimidazo[1,2-a]pyridin-6-yl)pyrimidin-4-yl)amino)-5-methoxypyridin-2-yl)acetamide]	≤ 0.01 µM	0.01 to 0.1 µM			
CC(=O)Nc1cc(Nc2cc(OC3CC3)nc(C(C)(F)F)n2)c(OCc2ccccc2)cn1 [Example 487, N-(5-(benzyloxy)-4-((6-cyclopropoxy-2-(1,1-difluoroethyl)pyrimidin-4-yl)amino)pyridin-2-yl)acetamide]	≤ 0.01 µM	≤ 0.01 µM			
CC(=O)Nc1cc(Nc2cc(C)nc(C(C)(F)F)n2)c(OCc2cnccc2C)cn1 [Example 470, N-(4-((2-(1,1-difluoroethyl)-6-methylpyrimidin-4-yl)amino)-5-((4-methylpyridin-3-yl)methoxy)pyridin-2-yl)acetamide]	≤ 0.01 µM	0.1 to 1 µM			
CC(=O)Nc1cc(Nc2cc(C)nc(C(C)(C)F)n2)c(-c2cc3n(n2)CCOC3)cn1 [Example 530, N-(5-(6,7-dihydrO4H-pyrazolo[5,1-c][1,4]oxazin-2-yl)-4-((2-(2-fluoropropan-2-yl)-6-methylpyrimidin-4-yl)amino)pyridin-2-yl)acetamide]	≤ 0.01 µM	≤ 0.01 µM			
CCOc1cnc(NC(C)=O)cc1Nc1nc(C(C)(F)F)nc(C)c1F [Example 35, N-(4-((2-(1,1-difluoroethyl)-5-fluoro-6-methylpyrimidin-4-yl)amino)-5-ethoxypyridin-2-yl)acetamide]		0.1 to 1 µM			≤ 0.01 µM
CCc1cc(Nc2cc(NC(C)=O)ncc2-c2ccc(=O)n(C)n2)nc(C(C)(F)F)n1 [Example 831, N-(4-((2-(1,1-difluoroethyl)-6-ethylpyrimidin-4-yl)amino)-5-(1-methyl-6-oxo-1,6-dihydropyridazin-3-yl)pyridin-2-yl)acetamide]			≤ 0.01 µM	≤ 0.01 µM	
[2H]C([2H])([2H])C(=O)Nc1cc(Nc2cc(C)nc(C(C)(F)F)n2)c(-c2ccc(OC)nn2)cn1 [Example 213, N-(4-((2-(1,1-difluoroethyl)-6-methylpyrimidin-4-yl)amino)-5-(6-methoxypyridazin-3-yl)pyridin-2-yl)acetamide-2,2,2-d3]		≤ 0.01 µM			≤ 0.01 µM
COCCOc1cnc(NC(C)=O)cc1Nc1cc(C)nc(C(C)(F)CF)n1 (centres unmarked) [Example 81, N-(4-((2-(1,2-difluoropropan-2-y1)-6-methylpyrimidin-4-yl)amino)-5-(2-methoxyethoxy)pyridin-2-yl)acetamide]		0.01 to 0.1 µM			≤ 0.01 µM
CC(=O)Nc1cc(Nc2cc(C)nc(C(C)(F)F)n2)c(OCc2ccc(F)c(F)c2)cn1 [Example 467, N-(5-((3,4-difluorobenzyl)oxy)-4-((2-(1,1-difluoroethyl)-6-methylpyrimidin-4-yl)amino)pyridin-2-yl)acetamide]	≤ 0.01 µM	0.01 to 0.1 µM			
CC(=O)Nc1cc(Nc2ccnc(C(C)(F)F)n2)c(-c2cncc(OC(F)F)n2)cn1 [Example 689, N-(4-((2-(1,1-difluoroethyl)pyrimidin-4-yl)amino)-5-(6-(difluoromethoxy)pyrazin-2-yl)pyridin-2-yl)acetamide]	0.01 to 0.1 µM	≥ 1 µM			
COc1cnc(NC(C)=O)cc1Nc1cc(-c2cnn(CC(F)(F)F)c2)nc(C(C)(F)F)n1 [Example 381, N-(4-((2-(1,1-difluoroethyl)-6-(1-(2,2,2-trifluoroethyl)-1H-pyrazol-4-yl)pyrimidin-4-yl)amino)-5-methoxypyridin-2-yl)acetamide]	≤ 0.01 µM	0.01 to 0.1 µM			
COc1ccc(-c2cc(Nc3cc(NC(C)=O)ncc3OC)nc(C(C)(F)F)n2)cn1 [Example 392, N-(4-((2-(1,1-difluoroethyl)-6-(6-methoxypyridin-3-yl)pyrimidin-4-yl)amino)-5-methoxypyridin-2-yl)acetamide]	≤ 0.01 µM	≤ 0.01 µM			
